Legend:
[1] = system: stroke (middle cerebral artery occlusion (MCAo)) rats; test: Embolic middle cerebral artery occlusion (MCAo) stroke model in rats; assay type: in vivo, rat
Method: (§1) Effectiveness of treatment with thymosin β4 was tested in stroke (middle cerebral artery occlusion (MCAo)) rats and in experimental autoimmune encephalomyelitis (EAE) mice (a well-established in vivo model for multiple sclerosis). Both the stroke rats and the EAE mice were treated with 6 mg/kg thymosin β4 intraperitoneally (IP) in a volume of 0.3 mL twenty-four hours after stroke or after the day of immunization in the EAE model and then every three days (6 mg/kg IP) for four additional doses. An equal volume of saline was administered (IP) to a group of both stroke rats and EAE mice as a control. Bromodeoxyuridine (BrdU; 100 mg/kg) was administered (IP) daily for seven days, initiated 24 hours after MCAo to label proliferating cells. Behavioral tests (adhesive removable test and NSS (Neurological Severity Score)) were performed immediately before treatment and at days 1, 7, 14, 21, 28, 35, 42, 49, and 56 days after MCAo and up to 30 days in the EAE mouse model. All rats were sacrificed 56 days after MCAo; EAE mice were sacrificed at 30 days.

[2] = system: experimental autoimmune encephalomyelitis (EAE) mice; test: Experimental autoimmune encephalomyelitis (EAE) mouse model of multiple sclerosis; assay type: in vivo; details: 6 mg/kg IP, up to 30 days, vs saline control, p<0.01, FIG. 9
Method: as §1

[3] = embolic stroke rats, 6 mg/kg IP, vs saline control

For thymosin β4, the “number of myelinated axons (Bielschowsky and Luxol Fast Blue staining)” value ([1]; after MCAo, treated vs control, p<0.05, FIG. 4) was “increased”, the “cellular proliferation (BrdU expression, number of BrdU immunoreactive cells)” value ([1]; after MCAo, treated vs control, p<0.05, FIG. 8) was “increased” and the “number of oligodendrocyte progenitors and matured oligodendrocytes” value ([1]; after MCAo, treated vs control, p<0.05, FIGS. 5-7) was “increased”. For the same substance, the “functional improvement in behavioral tests (adhesive removal test, NSS)” value ([1]; beginning at 21 days after stroke onset, 6 mg/kg IP, p<0.05, FIG. 1-2) was “Significant functional improvement”, the “relative increase in BrdU expression in the striatum or myelinated region of the rat brain” value ([1]; embolic stroke rats, 6 mg/kg IP 24 h after stroke, then every three days for four additional doses, sacrificed 56 days after MCAo) was 42% and the “increase in CNP, a marker of mature oligodendrocytes” value [1, 3] was 11%. The “increase in NG-2, a marker of immature oligodendrocytes” value [1, 3] was 47% and the functional neurological score [2] was “robust improvement”.
